Among the data in a melting point compilation (Tetko et al.; mined from patent text by program, amines drawn as free bases though some values may be those of a salt) are melting point values, retold here.

`CC(C)(C)n1ncc(S)c(Cl)c1=O` displayed a melting point of 112 to 113 °C.

For `Clc1[nH]ncc1-c1csc(Nc2ccccn2)n1`, the melting point was in the range of 299 to 304 °C.

As to `CCC(O)c1cccc(S(N)(=O)=O)c1` (stereo not drawn), the melting point lay in the range of 218 to 220 °C.

Compound `COc1ccc(CCNC(=S)Nc2nc3ccccc3[nH]2)cc1` came in with a melting point of 166 to 172 °C. Then `CC(C)(C)C1CCC(C2=C(O)C(=O)c3ccccc3C2=O)CC1` (stereo not drawn), with 123 to 126 °C; and `COc1ccc(C(=O)Nc2ccc(C(C)(C)c3noc(COc4ccccc4)n3)cc2)cc1OC`, with 165 to 167 °C. On to `COc1ccc(S(=O)(=O)C(Cc2cccnc2)(CC2CCCCC2)C(=O)NO)cc1` (stereo not drawn), for which the melting point was 57 to 60 °C. The figure for `Clc1ccc(C=Cc2ccccc2)cc1Cl` is 87.7 °C; for `Cc1c(N2CC(C)[C@@](N)(CF)C2)c(F)cc2c(=O)c(C(=O)O)cn([C@@H]3C[C@@H]3F)c12` (stereo partly drawn) it is 200 to 203 °C.

`O=C(Nc1ccccc1-c1ccc(Cl)cc1F)c1cccnc1Cl` gave a melting point of 124 to 126 °C. As for `Cc1ccc2c3c(ccc2n1)OC[C@H](CN1CCN(c2ccc4cc(Br)ccc4n2)CC1)O3`, the melting point lay in the range of 153 to 154 °C. The compound `Cn1cnc(COc2nn3c(-c4cccc(F)c4)nnc3cc2-c2ccccc2)n1` showed a melting point of 250 to 251 °C.

Compound `CN(C)c1ncnc2c1ncn2Cc1c(Cl)cccc1Cl` showed a melting point of 174 to 175 °C. As to `CN(C)c1ccc(C(=O)CCCN2CCC(=C(c3ccccc3)c3ccccc3)CC2)cc1`, the melting point is 110 to 112 °C. Consider `CNC(=O)C1CCN(c2cc(-c3ccc(Cl)cc3)nc3ccc(F)cc23)CC1`, for which the melting point was found to be 279 °C. In turn, `Cc1ccc(-c2nsc3[nH]c4ccc(C)cc4c(=O)c23)cc1` displayed a melting point of 330 °C. The figure for `COc1ccc(C(CC(=O)c2ccccc2)C(=O)O)cc1` (stereo not drawn) is 157 to 158 °C; for `COC(=O)C(O)C(NC(=O)OC(C)(C)C)C1CC1` (stereo not drawn) it is 93 °C. As to `CNc1cc(F)cc(NC)c1[N+](=O)[O-]`, the melting point stood at 198 °C.

The compound `CCS(=O)c1cc(C(=O)NCC2CCCN2CC2CC2)c(OC)cc1N` (stereo not drawn) showed a melting point of 158 to 162 °C. For the compound `N#Cc1ccc(C(=O)CC2(O)OCCO2)cc1`, the melting point fell in the range of 151 to 152 °C.

Regarding `O=C(O)c1cc2cc(C(F)(F)F)cnc2n1Cc1ccncc1`, the melting point was in the range of 302 to 303 °C. The compound `Cc1cc(-c2cnn3c(C(F)(F)F)cc(-c4ccc(C(F)(F)F)cc4)nc23)ccn1` displayed a melting point of 243 °C. Consider `CC(=O)c1sc2sc(-c3ccncc3)c(C)c2c1C`, for which the melting point fell in the range of 171 to 173 °C. Compound `COc1ccc(-c2cc(=Nc3c(C)cc(C)cc3C)n(C)c(N(C)Cc3ccccc3)n2)cc1OC` had a melting point of 96 to 98 °C. Regarding `CCOC(=O)C(=NO)c1ccccc1[N+](=O)[O-]`, the melting point was in the range of 167 to 168 °C.

Regarding `CCC1=C(c2cccc(F)c2)C(=O)N(c2ccc(Cl)c(C(F)(F)F)c2)C1`, the melting point was in the range of 126 to 129 °C. In turn, `O=c1cc(-c2ccccc2)oc2cc(OCCCCCCN3CCCCC3)cc(O)c12` registered a melting point of 103 °C. The compound `O=C(O)c1ccc(S(=O)(=O)Cl)cc1O` came in with a melting point of 173 °C. For the compound `COc1cc2nc(CN(C)C)[nH]c(=O)c2cc1OC`, the melting point was in the range of 210 to 212 °C.

`CC(C)(C)OC(=O)NC[C@H]1CN(c2ccc3c(c2)CCCc2cnoc2-3)C(=O)O1`: the melting point fell in the range of 180 to 184 °C. `COc1cccc(Sc2ccnc(Nc3cccc(CN)c3)n2)c1` gave a melting point of 120 to 121 °C.

Compound `Cc1oc(-c2ccccc2)nc1COc1cc(COc2ncccc2C=O)on1` registered a melting point of 90 to 91 °C. For the compound `COc1ccc(C(=O)N2CCc3cc(S(=O)(=O)N4CC(c5ccccc5)NC4=O)ccc32)cc1` (stereo not drawn), the melting point is 220 to 222 °C.

`CCOc1csc(N)c1C#N` came in with a melting point of 145 to 146 °C. Then `C#CCOc1c(OC)cc(/C=C/C(=O)/C=C/c2cc(OC)c(OCC#C)c(OC)c2)cc1OC`, with 162 to 164 °C; and `Cc1ccc(CNc2nc(Cl)nc(OCC(F)(F)F)n2)o1`, with 70 to 72 °C; and `Cc1ccc2cc(CCCc3ccncc3)c(=O)n(-c3cccc([N+](=O)[O-])c3)c2n1`, with 165 to 166 °C. `CCCCc1nc(C(O)(CC)CC)c(C(=O)O)n1Cc1ccc(-c2ccccc2-c2nnn[nH]2)cc1`: the melting point was in the range of 181 to 183 °C. Then `C#CCCC(O)=C(C#N)C(=O)Nc1ccc(C(F)(F)F)cc1`, with 172 °C; and `O=[N+]([O-])c1ccccc1OC[C@@H](O)CNCCc1ccc(Cl)c(Cl)c1`, with 73 to 74 °C. In turn, `CNC(=O)C1(C)Oc2c(C)c(C)c(O)c(C)c2CC1OC` (stereo not drawn) displayed a melting point of 139 to 140 °C. For the compound `CNc1nc2ccc(CCc3nc4cc(OC)ccn4c3C)cc2o1`, the melting point fell in the range of 203 to 205 °C. Consider `CCNC(=O)Nc1nc2cc(-c3cccnc3)cc(-c3cccc(OC)n3)c2s1`, for which the melting point came out at 300 °C. As for `COC(=O)CCCc1cc2cc(Cl)ccc2n1S(=O)(=O)c1ccc2nc(C)sc2c1`, the melting point lay in the range of 151 to 153 °C.

On to `CNC(=O)N(C)c1nnc(C(C)(CCl)CCl)s1`, for which the melting point fell in the range of 150 to 152 °C.

For the compound `OCCON=Cc1ccc2ccccc2n1`, the melting point amounted to 128 °C. `CC(C)(C)OC(=O)N1CCC(c2ccc(N3C[C@H](CN=[N+]=[N-])OC3=O)cc2F)CC1` had a melting point of 109 to 110 °C. In turn, `CC(C#Cc1ccc(-c2ccccc2)o1)N(O)C(N)=O` (stereo not drawn) showed a melting point of 163 to 164 °C. Then `O=P(O)(O)OC(Cn1cncn1)(Cn1cncn1)c1ccc(F)cc1F`, with 223 to 224 °C; and `O=c1oc2ccccc2c(OCCCN2CCOCC2)c1-c1ccccc1`, with 82 °C; and `CCCc1nc(I)c(CO)[nH]1`, with 169 to 170 °C.

In turn, `COC(=O)Nc1nc(-c2ccccc2)c(-c2nc3ccccc3c(=O)n2-c2ccc(OC)cc2)s1` came in with a melting point of 272 to 274 °C.

For the compound `Cc1cc(C2=NN(c3nccs3)[C@H](C)Cc3cc4c(cc32)OCO4)ccc1[N+](=O)[O-]`, the melting point is 138 to 142 °C. Then `Cc1ccc(NC(=O)c2cccc(N(C)C)c2)cc1NC(=O)c1cccc(NS(C)(=O)=O)c1`, with 239 to 240 °C; and `COc1ccc(Cn2nnc(C3=C(O)c4ccccc4S(=O)(=O)N3C)n2)cc1`, with 178 to 181 °C; and `Cc1noc(NS(=O)(=O)c2ccccc2-c2ccc(-c3ncco3)cc2Cn2ccnc2C(C)C)c1C`, with 184 to 188 °C. The figure for `O=C1NC(=O)C(Cc2ccc(OCc3nc4cccnc4n3Cc3ccc(Cl)cc3)cc2)S1` (stereo not drawn) is 211 to 213 °C; for `COC(=O)c1c(N)cc(Cl)c(Cl)c1Cl` it is 123 to 124 °C; for `CCCCC(=O)NCCCSCCO` it is 7 °C. For `CCC(O)(c1ccc(O)cc1O)c1ccccc1OC` (stereo not drawn), the melting point fell in the range of 141 to 142 °C. For the compound `CS(=O)(=O)N[C@@H](CCCCNC=O)C(=O)NC[C@H](CC1(C(=O)N[C@@H](Cc2ccc(O)cc2)C(=O)O)CCCC1)C(=O)O`, the melting point lay within 56 to 60 °C. Regarding `Clc1ccc(Oc2cncc3sc(-c4nnn[nH]4)cc23)cc1`, the melting point fell in the range of 250 to 254 °C.

`CCCOc1ccc(F)c2c(=O)c(-c3ccc(OC)cc3)cn(CCN3CCOCC3)c12`: the melting point was 206 to 208 °C. Turning to `O=C(NCCCC[C@H](O)C(=O)O)OCc1ccccc1`, the melting point fell in the range of 79 to 81 °C. The figure for `N=C(NO)c1cnc(N)nc1` is 218 °C; for `Cn1ccnc1Sc1c(Cl)cccc1Cl` it is 113 to 115 °C; for `CCNc1c(F)cc2c(=O)c(C(=O)O)cn(-c3cc(N)c(F)cc3F)c2c1Cl` it is 252 to 255 °C. `COc1c2c(c(OC(C)=O)c3c1C(=O)c1c(cc(OC(C)=O)c(C)c1OC(C)=O)C3=O)-c1c(cc3cnn(-c4ccccc4)c(=O)c3c1OC(C)=O)CC2` had a melting point of 273 °C. For the compound `O=c1[nH]c2ccc(N3CCOCC3)cc2c(=O)o1`, the melting point came out at 235 °C. Take `CC(=O)Nc1nc(CCc2ccc(NC(=N)N)cc2)c(Cc2cccc(S(C)(=O)=O)c2)s1`: the melting point is 212 to 214 °C.

`O=C(O)CCCCc1cccc(-c2nc(=O)c3ccccc3s2)n1`: the melting point amounted to 162 °C. In turn, `CSc1nc(C)ccc1NC(=O)CCCCCSc1nc2ccccc2s1` came in with a melting point of 122 to 123 °C.

The compound `NS(=O)(=O)c1cc(C(=O)Nc2ccccc2)ccc1F` returned a melting point of 219 to 221 °C. `COc1cccc(Cc2nc3n(-c4c(Cl)cc(C=O)cc4Cl)[nH]c(C(C)C)c-3c(=O)n2)c1` showed a melting point of 212 to 214 °C.

In the case of `O=C(Nc1ccc2ccccc2c1C(=O)O)OCc1cc2cc(-c3ccccc3)ccc2o1`, the melting point lay within 174 to 177 °C.

Turning to `CS(=O)(=O)NC(=O)/C(C#N)=C/c1cn(-c2cc(C(F)(F)F)cc(C(F)(F)F)c2)nc1-c1cccc(Cl)c1`, the melting point was 273 to 275 °C. The compound `COC(=O)CC(C)C1CCC2C3CC=C4CC(OC(C)=O)CC(OC(C)=O)C4(C)C3CCC12C` (stereo not drawn) showed a melting point of 123 to 124 °C.

The compound `O=C(O)c1ccc(Br)cc1Cc1ccccc1` registered a melting point of 137 °C. For `Cn1nc(-c2ccccc2C(F)(F)F)nc1-c1ccccc1Cl`, the melting point lay in the range of 90 to 92 °C. Compound `O=S(=O)(CCC=C(F)F)c1nccc(-c2ccccc2)n1` yielded a melting point of 103 to 104 °C. `O=C1CC(c2coc3ccccc23)=Nc2cc3c(cc21)OCO3`: the melting point is greater than 315 °C. The compound `COc1cccc(CNC(=O)c2nc3scc(CC(=O)Nc4ccc(C(=O)O)cc4)c3c(=O)[nH]2)c1` had a melting point of 279 °C. `COC(=O)c1c(OC)ccc(NC(=O)C(F)(F)F)c1OC`: the melting point lay in the range of 112 to 113 °C. In the case of `CC(=O)Nc1cc([N+](=O)[O-])ccc1OCC(C)O` (stereo not drawn), the melting point came to 123 °C. As for `O=Cc1ccc(-c2ccc3nc[nH]c(=O)c3c2)o1`, the melting point came out at 267 °C. Regarding `COC(=O)c1ccc(Cn2nc(Br)c3ccc(C(=O)NCC4CCCC4)cc32)c(OC)c1`, the melting point lay in the range of 161 to 162 °C.

In turn, `NC(=O)c1ncn2c1[C@@H]1CCN1C(=O)c1c-2ccc(F)c1Cl` yielded a melting point of 296 to 298 °C.

The melting point is the temperature, or range, at which the solid turns liquid.
